Entries after “also recorded” stand apart in the source; their conditions may differ.
Key:
[1] = test system: eukaryotic elongation factor 2 (eEF2); conditions: Horman et al.; cited from earlier work
S6K and 4EBP1 = conditions: Kimura et al.; Krause et al.; cited from earlier work
AMPK = conditions: Corton et al.; cited from earlier work
[2] = test system: phosphorylation of S6K, S6, 4EBP1 and mTOR; assay: Immunoblot of S6K, S6, 4EBP1 and mTOR phosphorylation in HEK293 cells under energy depletion; type: cell-based, human; conditions: for phosphorylation of S6K and 4EBP1: depletion of cellular ATP
Procedure: (§1) HEK293 cells were seeded and maintained in Dulbecco's modified Eagle's medium (DMEM) containing 10% fetal bovine serum (FBS). Transfection was performed in serum-free conditions using Lipofectamine reagent (Invitrogen, Carlsbad, Calif.) in accordance with the manufacturer's instructions. In brief, 4 h after transfection, the cells were recovered in DMEM containing 10% FBS for 16 h and then starved for 16-24 h. Cells were then lysed in lysis buffer (10 mM Tris-HCl at pH 7.5, 100 mM sodium chloride, 1% NP-40, 1% Triton X-100, 50 mM sodium fluoride, 2 mM EDTA, 1 mM phenyl methylsulphonyl fluoride, 10 μg ml^−1 leupeptin and 10 μg ml^−1 aprotinine) and immunoprecipitated with the indicated antibodies and protein G-Sepharose beads. Immunocomplexes were analyzed by SDS-polyacrylamide gel electrophoresis (PAGE).

Akt phosphorylation = assay: Immunoblot of Akt phosphorylation in HEK293 cells; type: cell-based, human; conditions: AMPK inhibitor treatment
Procedure: as §1

TSC2 = assay: TSC2/TSC1 phosphorylation in transfected HEK293 cells (mobility shift, 32P labelling, two-dimensional phosphopeptide mapping); type: cell-based, human; conditions: 10 μM, added 30 minutes before 2-DG, HEK293
Procedure: as §1
HEK293 cells were cotransfected with HA-tagged TSC2, Myc-tagged TSC1 and the indicated plasmids. Cells were phosphate- and serum-starved for 4 h before incubation with 0.25 mCi ml^−1 32P-orthophosphate (ICN) for 4 h.
Cells were washed once with ice-cold PBS and lysed. HA-tagged TSC2 was immunoprecipitated, resolved by SDS-PAGE and transferred to a PVDF membrane. Phosphorylated TSC2 was visualized by autoradiography and phosphopeptide mapping was then performed. In brief, the phosphorylated TSC2 bands were excised, fixed in methanol and incubated in 500 μl of 0.5% polyvinylpyrrolidone-40 dissolved in 100 mM acetic acid for 30 min at 37° C. The sample were then digested with 20 μg of TPCK-treated trypsin (Sigma) at 37° C. in 75 mM ammonium bicarbonate buffer at pH 8.0 containing 5% acetonitrile. After digestion, samples were dried under vacuum and suspended in 10 μl of water. Samples were spotted onto a cellulose plate and first dimensional electrophoresis was performed using 1% ammonium bicarbonate buffer at pH 8.9. The plates were separated by chromatography in the second dimension in chromatography buffer (n-butanol:pyridine:acetic acid:water; 20:24:6:30). The plates were dried and phosphopeptides were visualized by autoradiography.

[3] = test system: LEF (TSC2−/− epithelial) cells; assay: Cell death / apoptosis of LEF cells (vector, TSC2, TSC2-3A); type: cell-based; conditions: vector and wild type TSC2 expressing LEF cells
Procedure: FIGS. 16a-16f show TSC2 plays roles in protecting cells from glucose depletion-induced apoptosis. […] LEF cells stably expressing vector, TSC2, or TSC2-3A were cultured in 25 mM glucose (G+) or glucose free medium (G−) with or without 20 nM rapamycin. Pictures were taken at 72 hours in culture. Note that the TSC2 wild type expressing cells are morphologically smaller. […] LEF cells stably expressing vector, TSC2 or TSC2-3A were cultured in glucose free medium with or without 20 nM rapamycin for 48 hours. Western blots with anti-cleaved-caspase-3 and actin are shown. […] EEF cells were cultured in glucose free medium with or without 20 nM rapamycin for 96 hours. […] The EEF4 and EEF8 cells were cultured in glucose free medium with or without 20 nM rapamycin for 72 hours. Western blots with cleaved-caspase-3 and actin are shown. […] The MEFs were cultured in glucose free medium for 48 hours. […] MEFs were cultured in glucose free medium with or without 20 nM rapamycin for 16 hours. Western blots with cleaved-caspase-3 and actin are shown.

EEF4 (TSC2+/+) cells = assay: S6K and 4EBP1 phosphorylation in EEF4 (TSC2+/+) fibroblasts; type: cell-based
S6K-dC104 = assay: Phosphorylation and kinase activity of rapamycin-resistant S6K mutants (S6K-dC104, S6K-dNC); type: cell-based
Procedure: as §1
For the S6K assays, HEK293 cells grown in six-well plates were transfected with 10-20 ng HA-S6K constructs, with or without various plasmids, as indicated in the figures. HA-S6K was immunoprecipitated from serum-starved cells with an anti-HA antibody and analyzed by in vitro kinase assay using purified GST-S6 as a substrate (Pearson et al., EMBO J. 14:5279-5287 (1995)).

db/db mice [4] = type: in vivo; conditions: 16 weeks treatment
Procedure: m+/+ Lepr db (db/+) mice were obtained from The Charles River Japan and mated, +Lepr db/+ Lepr db mice (db/db) mice were generated.
Mice were randomly divided into four groups as follows: nondiabetic db/+; nondiabetic db/+ treated with Rapamycin; diabetic db/db: and diabetic db/db treated with Rapamycin (2.0 mg/kg body weight, 3 days/week). Rapamycin was injected intraperitoneally (i.p.) from the age of 8 weeks to 25 weeks or 16 weeks to 25 weeks. Blood glucose levels and body weight were determined weekly in all animals. Mice were housed in a 12 hr light/dark cycle and temperature-controlled environment. […]
At age 25 weeks, kidney was isolated from db/db and db/+ mice (n=10 for each group), and total RNA was purified. The expression of fibronectin and α3-type IV collagen mRNA by real-time reverse transcriptase-polymerase chain reaction (RT-PCR), which was performed in an ABI 7700 sequence detector (Applied Biosystems), was quantified. […] For quantitative RT-PCR of UCP-1, BAT (brown adipose tissue) was isolated from 2 weeks rapamycin treated or untreated mice, primers used were described previously (see, e.g., Um S H, et al., Nature 431, 200-205, 2004; herein incorporated by reference in its entirety). Data were normalized to GAPDH and analyzed by the comparative threshold cycle method. […]
Data were expressed as the means±SEM. […]

db/db mice [5] = assay: Diabetic nephropathy in db/db mice: glomerular morphometry, gene expression, urinary albumin; type: in vivo; conditions: rapamycin for 8 weeks from 16 weeks of age
Procedure: Mice were randomly divided into four groups as follows: nondiabetic db/+; nondiabetic db/+ treated with Rapamycin; diabetic db/db: and diabetic db/db treated with Rapamycin (2.0 mg/kg body weight, 3 days/week). Rapamycin was injected intraperitoneally (i.p.) from the age of 8 weeks to 25 weeks or 16 weeks to 25 weeks. Blood glucose levels and body weight were determined weekly in all animals. Mice were housed in a 12 hr light/dark cycle and temperature-controlled environment. Animal care and all experiments were conducted in accordance with the institutional guidelines of the Kyushu University Graduate School of Medicine.
Seventeen weeks after treatment with rapamycin (25 week of age), mice were deeply anesthetized, after perfusion with ice-cold PBS, the kidneys were perfused with 4% paraformaldehyde. […] To quantify mesangial expansion, sections were coded and read. […] The extent of increase in mesangial matrix (defined as mesangial area) was determined by the presence of PAS-positive and nuclei-free area in the mesangium; the glomerular surface area has been measured using standard measurements of glomerular tuft areas using a the computer program of Axiovision Auto Mesure.
At age 25 weeks, kidney was isolated from db/db and db/+ mice (n=10 for each group), and total RNA was purified. […] Data were normalized to GAPDH and analyzed by the comparative threshold cycle method. […]

[6] = target: GST-TSC2 fragment 2 (amino acids 1357-1765) (UniProt P49816)
[7] = target: GST-TSC2 fragment 1 (amino acids 910-1112) (UniProt P49816)
TSC2-F2 fragment = TSC2-F2 fragment (UniProt P49816)
[8] = target: TSC2 fragment containing S1345 (UniProt P49816)

**Q.** With `NC(=O)c1ncn([C@@H]2O[C@H](COP(=O)(O)O)[C@@H](O)[C@H]2O)c1N` [AICAR, 5-aminoimidazole-4-carboxyamide ribonucleotide] as the molecule, how does the “phosphorylation of eEF2” value [1] read?
**A.** The value was “increase phosphorylation”.

**Q.** What about the S6K activity (S6K and 4EBP1) of the same molecule?
**A.** The S6K activity was “inhibit S6K activity”.

**Q.** And the AMPK activation (AMPK)?
**A.** The AMPK activation was “activate AMPK”.

**Q.** Which “effect on 2-DG induced dephosphorylation of S6K” value ([2]; HEK 293, with 2-DG, listed as AMPK inhibitor) does the source give for `c1cc(-c2cnn3cc(-c4ccc(OCCN5CCCCC5)cc4)cnc23)ccn1` [Compound C] here?
**A.** The value was “significantly reversed the inhibitory effect of 2-DG on S6K phosphorylation; also recorded: blocks the 2-DG induced dephosphorylation of S6K”.

**Q.** And the “S6K dephosphorylation induced by glucose deprivation” value ([2]; glucose deprivation, listed as AMPK inhibitor)?
**A.** Its value is “significantly blocked; also recorded: partially blocks”.

**Q.** What about the Akt phosphorylation (Akt phosphorylation) of the same molecule?
**A.** Its Akt phosphorylation is “had no effect”.

**Q.** And the “mobility of TSC2 / 2-DG induced mobility shift” value (TSC2)?
**A.** Its value is “blocks the 2-DG induced mobility shift of TSC2”.

**Q.** And the “mobility of TSC2 / 2-DG induced mobility shift” value (TSC2; listed as compound C)?
**A.** The value was “increased the mobility of TSC2”.

**Q.** With `COc1cc([C@@H]2c3cc4c(cc3[C@@H](O[C@@H]3O[C@@H]5CO[C@@H](C)O[C@H]5[C@H](O)[C@H]3O)[C@H]3COC(=O)[C@H]23)OCO4)cc(OC)c1O` [Etoposide] as the molecule, how does the cell death [3] read?
**A.** The cell death was “caused cell death in both vector and wild type TSC2 expressing cells”.

**Q.** Which results are given for `N#CC(C#N)=NNc1ccc(OC(F)(F)F)cc1` [FCCP]?
**A.** phosphorylation of S6K and 4EBP1 [2]: caused a dephosphorylation of S6K and 4EBP1; S6K phosphorylation (EEF4 (TSC2+/+) cells): caused a decrease in S6K phosphorylation

**Q.** For `CC(=O)c1c(O)c(C)c(O)c(Cc2c(O)c3c(c(C(=O)/C=C/c4ccccc4)c2O)OC(C)(C)C=C3)c1O` [Rottlerin], which “phosphorylation of S6K and 4EBP1” value [2] is on record?
**A.** The value was “caused a dephosphorylation of S6K and 4EBP1”.

**Q.** And the S6K phosphorylation (EEF4 (TSC2+/+) cells)?
**A.** Its S6K phosphorylation is “caused a decrease in S6K phosphorylation”.

**Q.** Which results are given for `OC[C@@H](O)[C@@H](O)[C@H](O)[C@H](O)CO` [mannitol]?
**A.** phosphorylation of S6K on T389 ([2]; 25 mM): had little effect; phosphorylation of S6K ([2]; 100 mM): significantly inhibited

**Q.** With `CO[C@H]1C[C@@H]2CC[C@@H](C)[C@@](O)(O2)C(=O)C(=O)N2CCCC[C@H]2C(=O)O[C@H]([C@H](C)C[C@@H]2CC[C@@H](O)[C@H](OC)C2)CC(=O)[C@H](C)/C=C(\C)[C@@H](O)[C@@H](OC)C(=O)[C@H](C)C[C@H](C)/C=C/C=C/C=C/1C` [rapamycin] as the molecule, how does the “phosphorylation of Thr 389 in S6K-dC104” value (S6K-dC104) read?
**A.** The value was “not inhibited”.

**Q.** What about the “increase in oxygen consumption versus db/db untreated mice” value (db/db mice [4]) of the same molecule?
**A.** The value was 3.27 folds.

**Q.** What about the “amount of albumin excreted relative to the starting point (16w; db/db)” value (db/db mice [5]) of the same molecule?
**A.** The value was 60%.

**Q.** With GST-Akt as the molecule, how does the “in vitro phosphorylation by purified Akt” value [6] read?
**A.** Its value is “Wild-type Akt, but not the kinase-inactive Akt-KM mutant, efficiently phosphorylated both fragment 1 and fragment 2 of TSC2 in vitro”.

**Q.** What about the “in vitro phosphorylation by purified Akt” value [7] of the same molecule?
**A.** The value was “Wild-type Akt, but not the kinase-inactive Akt-KM mutant, efficiently phosphorylated both fragment 1 and fragment 2 of TSC2 in vitro”.

**Q.** Which results are given for “immunoprecipitated AMPK (in vitro kinase assay)”?
**A.** in vitro phosphorylation by immunoprecipitated AMPK (TSC2-F2 fragment): In vitro phosphorylation of the purified TSC2-F2 fragment by immunoprecipitated AMPK showed that AMPK specifically phosphorylates TSC2 on T1227; in vitro phosphorylation by immunoprecipitated AMPK [8]: The TSC2 fragment was phosphorylated by immunoprecipitated AMPK, but not the kinase inactive AMPK mutant

Reference: US20080207671A1, “Diagnosis and treatment of diseases arising from defects in the tuberous sclerosis pathway” (The Regents of the University of Michigan, priority 2006, published 2008)
